Laboratory results reported in patent US20090136468A1, “PERI-OPERATIVE COMPOSITION COMPRISING LACTOBACILLUS RHAMNOSUS” (N.V. NUTRICIA, priority 2004, published 2009).

Experiments:
[1] = test system: 131 strains of Lactobacillus rhamnosus; assay: Broth micro dilution test, MIC distribution; format: cell-based; details: 131 L. rhamnosus strains, LSM broth, 37° C.
Protocol: (§1) The inocula of 131 strains of Lactobacillus rhamnosus species are prepared by suspending several freshly cultivated single colonies in a tube with 5 ml of saline up to an optical density of McFarland standard No. 0.5. The corresponding colonies are picked up from MRS (de Man, Rogosa, Sharpe) agar plates on which the strains grew for 48 h at 37° C. and at 5% CO2 atmosphere. Subsequently, this suspension is diluted 1:10 by transferring 4 ml of the McFarland No. 0.5 suspension into a suitable inoculum container with 36 ml of saline and subsequent careful mixing. The MIC microtiter test plates (95 wels with different concentrations of the test antibiotics and one wel for the growth control without any antibiotic) were prepared before. Nutrient medium: LSM (lactobacilli susceptibility test medium) broth consisting of 90% Iso-sensitest broth plus 10% MRS broth (pH 6.7). The inoculations of the pre-made MIC test plates are performed by a multipoint inoculator (final inoculum of these LAB in the microtiter plate: about 10^5 bacteria ml^−1). The plates are subsequently incubated in ambient air or in a 5% CO2 atmosphere at 37° C. for 24 (−48) h. Then the MICs are read as the lowest concentration in the increasing concentration row of the corresponding antibiotic in which no growth of the test organism was observed. The control attempt (without antibiotic) of the corresponding strain tested has to show sufficient growth.

[2] = test system: L. rhamnosus GG (ATCC 53103); assay: MIC by serial dilution of antibiotics in MRS broth; format: cell-based, Lactobacillus rhamnosus; details: 24 hours at 37° C.
Protocol: (§2) The Minimal inhibitory concentration (MIC) was determined by serial dilution of the tested antibiotics in MRS broth (Oxoid) and inoculate the broth with the probiotic strain to be tested.
(§3) Strains of Lactobacilli were cultured for 24 hours in MRS-broth at 37° C. and under aerobic conditions. A dilution series of the 24 hours-culture in MRS-broth was prepared (dilution factor 10, from 10^−1 to 1^−10). The dilution series were cultured overnight (i.e. 16 h) at 37° C. under aerobic conditions. The highest dilution in which still growth was observed was selected to inoculate a 96-wells plate. The culture was centrifuge for 10 min at 3800 rpm and 4° C. and resuspended in the same volume of PBS (4° C.). The Lactobacilli were counted under a microscope and the solution was diluted in cold PBS to obtain a concentration of 1*10^8 cells/ml.
(§4) Wells of a 96-wells plate were filled with MRS broth and with antibiotics in varying dilution to a total volume of 95 μl. As a control, no antibiotics were added. The following final dilutions of antibiotics were tested:
(§5) bacitracin, colistin, nystatin, polymixin B, vancomycin: 1000, 500, 250, 125, 62.5 ug/ml erythromycin, kanamycin, neomycm: 100, 50, 25, 12.5, 6.25 ug/ml ampicillin, chloramphenicol, lincomycin, penicillin, streptomycin, tetracyclin: 10, 5, 2.5, 1.25, 0.625 ug/ml
(§6) The plates were incubated for 24 hours at 37° C. in a SpectaMAX plate reader (shaking every 10 minutes for 20 seconds) and the optical density was determined at 600 nm.

L. rhamnosus LMG P-22799 = assay: MIC by serial dilution of antibiotics in MRS broth; format: cell-based, Lactobacillus rhamnosus; details: 24 hours at 37° C.
Protocol: as §2, §3, §4, §5, §6

[3] = test system: our preferred Lb. rhamnosus (LMG P-22799); assay: Broth micro dilution test, MIC; format: cell-based, Lactobacillus rhamnosus
Protocol: as §1
(§7) In a large study comprising 131 different Lb. rhamosus strains the sensitivity for antibiotics was tested. In table 6 the number of strains falling within a certain dilution factor are shown. Clearly there are large differences in antibiotic sensitivity within the Lb. rhamnosus group. The more sensitive to these antibiotics, the better and together with the other parameters, such as the inhibition of adhesion of pathogens to intestinal epithelial cells is used to select the most appropriate Lb. rhamnosus. […]

Lb. rhamnosus GG = assay: Broth micro dilution test, MIC; format: cell-based, Lactobacillus rhamnosus; details: Lacticaseibacillus rhamnosus, unit from Table 6, read-out: MIC against Lb. rhamnosus GG
Protocol: as §1, §7

Compound | Number of strains with a MIC of 0.5 μg/ml [1] | Number of strains with a MIC of 1.0 μg/ml [1] | Number of strains with a MIC of 2.0 μg/ml [1] | Antibiotic sensitivity (expressed as MIC) of L. rhamnosus GG (ATTC 53103) [2] [mg/L] | Antibiotic sensitivity (expressed as MIC) of L. rhamnosus LMG P-22799 (L. rhamnosus LMG P-22799) [mg/L] | Number of strains with a MIC of 4.0 μg/ml [1] | other results
penicillin | 28 | 11 | 7 | – | – | – | Number of strains with a MIC of 0.125 μg/ml [1]: 9; Number of strains with a MIC of 0.25 μg/ml [1]: 76
CCC[C@@H]1C[C@@H](C(=O)N[C@@H]([C@H]2O[C@H](SC)[C@H](O)[C@@H](O)[C@H]2O)[C@@H](C)O)N(C)C1 [Lincomycin, lincomycin] | – | – | – | 10 | 5 | – | –
CC[C@H]1OC(=O)[C@H](C)[C@@H](O[C@H]2C[C@@](C)(OC)[C@@H](O)[C@H](C)O2)[C@H](C)[C@@H](O[C@@H]2O[C@H](C)C[C@H](N(C)C)[C@H]2O)[C@](C)(O)C[C@@H](C)C(=O)[C@H](C)[C@@H](O)[C@]1(C)O [Erythromycin, erythromycin] | – | – | – | >100 | 50 | – | –
[H]/N=C(/N)N[C@H]1[C@H](O)[C@@H](O)[C@H](O[C@@H]2O[C@@H](C)[C@](O)(C=O)[C@H]2O[C@@H]2O[C@@H](CO)[C@H](O)[C@@H](O)[C@@H]2NC)[C@@H](N/C(N)=N\[H])[C@@H]1O [STR] | – | – | 37 | – | – | 52 | Number of strains with a MIC of 8.0 μg/ml [1]: 21
O=C(N[C@H](CO)[C@H](O)c1ccc([N+](=O)[O-])cc1)C(Cl)Cl [CMP] | 1 | 10 | 88 | – | – | 31 | Number of strains with a MIC of 8.0 μg/ml [1]: 1
CN(C)[C@@H]1C(=O)C(C(N)=O)=C(O)[C@@]2(O)C(=O)C3=C(O)c4c(O)cccc4[C@@](C)(O)[C@H]3C[C@@H]12 [Tetracyclin, tetracyclin] | – | – | – | 10 | 2.5 | – | –
[H]/N=C(/N)N[C@H]1[C@H](O)[C@@H](O)[C@H](O[C@@H]2O[C@@H](C)[C@](O)(C=O)[C@H]2O[C@@H]2O[C@@H](CO)[C@H](O)[C@@H](O)[C@@H]2NC)[C@@H](N/C(N)=N\[H])[C@@H]1O [Streptomycin, streptomycin] | – | – | – | >10 | 5 | – | –
CC1(C)S[C@@H]2[C@H](NC(=O)[C@H](N)c3ccccc3)C(=O)N2[C@H]1C(=O)O [Ampicillin, ampicillin] | 52 | 62 | 12 | >10 | 2.5 | 2 | Number of strains with a MIC of 0.25 μg/ml [1]: 3; AMP sensitivity ratio LGG/LMG P-22799 [3]: 2-4; MIC ([3]; Lacticaseibacillus rhamnosus, unit from Table 6, read-out: MIC against our preferred Lb. rhamnosus): ≤ 0.5 mg/L; MIC (Lb. rhamnosus GG): ≥ 1 mg/L
O=C(N[C@H](CO)[C@H](O)c1ccc([N+](=O)[O-])cc1)C(Cl)Cl [Chloramphenicol, chloramphenicol] | – | – | – | >10 | 5 | – | –
